Measured values published in ChEMBL document CHEMBL1151150, “Brominated Metabolites from the Sponge Aplysina (verongia) thiona” (J Nat Prod, 1990).
Activity calls are given as the source filed them.

Key:
Format in all cases: functional, organism-based
Staphylococcus aureus = test: Antimicrobial activity against Staphylococcus aureus
Streptococcus pyogenes = test: Antimicrobial activity against Streptococcus pyogenes
[1] = system: Salmonella enterica subsp. enterica serovar Typhi str. CT18; test: Antimicrobial activity against Salmonella typhi
Shigella sonnei = test: Antimicrobial activity against Shigella sonnei

Measured: Activity

COc1c(Br)cc2c(c1Br)OC(=N)C2
inactive: all assays above

CCCCCO[C@]1(OC)C(Br)=C[C@@](O)(CC(N)=O)C=C1Br
inactive: all assays above

COc1c(Br)cc2c(c1Br)OC(=O)C2=C(C)C
inactive: all assays above

CCCCO[C@]1(OC)C(Br)=C[C@@](O)(CC(N)=O)C=C1Br
inactive: all assays above
